According to patent publication US20240270809A1, “ORAL GLP RECEPTOR AGONISTS” (priority 2020, published 2024):
Positions of bridges follow the written chain, without caps; N, C: chain ends. Non-standard residues stand in square brackets, D forms with d. Residues, ends and D or L forms follow the SMILES beside them. *: point of attachment. Malonyl(2,2-Me2,histaminyl) = CC(C)(C(=O)NCCc1cnc[nH]1)C(=O)*; Ala(1H-tetrazol-5-yl) = N[C@@H](Cc1nnn[nH]1)C(=O)O; αMePhe(2-F) = C[C@](N)(Cc1ccccc1F)C(=O)O; αMeL = CC(C)C[C@](C)(N)C(=O)O; Nle = CCCC[C@H](N)C(=O)O; Aib = CC(C)(N)C(=O)O

Columns and labels:
human GLP2 receptor = target: T1, human GLP2 receptor (Homo sapiens, UniProt O95838); experiment: cAMP accumulation assay, functional agonism of human GLP2 receptor; format: cell-based; conditions: HEK cells infected with human GLP2 receptor BacMam virus, HTRF cAMP; for Emax: HEK293, read-out: Human GLP-2R agonist cAMP Emax; for EC50: read-out: Human GLP-2R agonist cAMP pEC50 (converted)
T1 construct: expressed in transfected cells; host or cells: HEK cells, BacMam virus transduction
T1 sequence (O95838 1-553): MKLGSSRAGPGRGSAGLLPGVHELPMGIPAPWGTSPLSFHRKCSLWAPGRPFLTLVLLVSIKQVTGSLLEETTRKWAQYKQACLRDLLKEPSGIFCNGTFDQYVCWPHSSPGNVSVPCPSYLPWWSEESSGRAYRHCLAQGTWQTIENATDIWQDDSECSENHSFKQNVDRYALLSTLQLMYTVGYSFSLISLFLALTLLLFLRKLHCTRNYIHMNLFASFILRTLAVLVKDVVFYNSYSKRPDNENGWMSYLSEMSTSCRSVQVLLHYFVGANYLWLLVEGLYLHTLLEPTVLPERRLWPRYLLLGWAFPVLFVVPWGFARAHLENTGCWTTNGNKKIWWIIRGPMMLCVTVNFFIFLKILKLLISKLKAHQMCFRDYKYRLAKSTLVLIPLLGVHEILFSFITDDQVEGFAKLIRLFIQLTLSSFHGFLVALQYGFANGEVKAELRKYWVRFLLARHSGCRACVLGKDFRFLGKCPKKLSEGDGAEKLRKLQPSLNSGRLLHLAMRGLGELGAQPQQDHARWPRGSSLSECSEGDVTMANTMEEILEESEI
Method: (§1) CAMP production upon agonist stimulation of human GLP2 or GLP1 receptor was assessed utilizing HiRange cAMP kit (Cisbio). In brief, HEK cells were infected with either human GLP2 or GLP1 receptor BacMam virus for 24 hours and frozen for later use in the assay. […] Cells were prepared in the assay buffer (HBSS (Lonza) supplemented with 0.5 mM IBMX (Tocris)). After 45 min incubation at 37° C., the reaction was stopped by addition of the HTRF detection reagents in the lysis buffer provided in the kit.

human GLP1 receptor = target: T2, human GLP1 receptor (Homo sapiens, UniProt P43220); experiment: cAMP accumulation assay, functional agonism of human GLP1 receptor; format: cell-based; conditions: HEK cells infected with human GLP1 receptor BacMam virus, HTRF cAMP; for Emax: HEK293, read-out: Human GLP-1R agonist cAMP Emax; for EC50: read-out: Human GLP-1R agonist cAMP pEC50 (converted)
T2 construct: expressed in transfected cells; host or cells: HEK cells, BacMam virus transduction
T2 sequence (P43220 24-463): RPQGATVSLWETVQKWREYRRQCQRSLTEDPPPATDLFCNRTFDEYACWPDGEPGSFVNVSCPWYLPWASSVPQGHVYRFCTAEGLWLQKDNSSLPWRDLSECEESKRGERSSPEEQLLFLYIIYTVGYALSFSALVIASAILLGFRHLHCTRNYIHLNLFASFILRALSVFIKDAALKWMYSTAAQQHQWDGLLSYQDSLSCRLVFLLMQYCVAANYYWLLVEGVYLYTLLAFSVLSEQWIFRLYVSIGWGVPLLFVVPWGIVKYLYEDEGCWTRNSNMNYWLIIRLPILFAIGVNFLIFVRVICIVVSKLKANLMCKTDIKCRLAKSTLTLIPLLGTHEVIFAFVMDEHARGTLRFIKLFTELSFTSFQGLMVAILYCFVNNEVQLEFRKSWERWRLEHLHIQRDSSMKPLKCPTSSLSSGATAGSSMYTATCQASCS
Method: as §1

Emax (human GLP2 receptor) [%] | EC50 (human GLP2 receptor) [nM] | Emax (human GLP1 receptor) [%] | EC50 (human GLP1 receptor) [nM] | SMILES
103 | 0.00794 | 96.8 | 0.2 | CCCC[C@@H]1NC(=O)[C@H](CCC(=O)O)NC(=O)[C@@H](NC(=O)[C@H](CO)NC(=O)[C@H](Cc2ccccc2)NC(=O)[C@H](CO)NC(=O)[C@@H](C)NC(=O)[C@H](Cc2nn[nH]n2)NC(=O)C(C)(C)C(=O)NCCc2c[nH]cn2)CCCCNC(=O)C[C@@H](C(=O)N[C@@](C)(CC(C)C)C(=O)N[C@@H](CC(C)C)C(=O)N[C@@H](CC(=O)O)C(=O)N[C@H]2CCC(=O)NCCCC[C@@H](C(=O)N[C@@H](CC(=O)O)C(=O)N[C@@H](Cc3ccccc3)C(=O)N[C@H](C(=O)N[C@@H](CC(N)=O)C(=O)N[C@@H](Cc3c[nH]c4ccccc34)C(=O)N[C@@H](CC(C)C)C(=O)N[C@H](C(=O)N[C@@H](CCC(N)=O)C(=O)N[C@H]3CCC(=O)NCCCC[C@@H](C(N)=O)NC(=O)[C@H]([C@@H](C)O)NC(=O)[C@H]([C@@H](C)CC)NC(=O)[C@H](CCCCN)NC3=O)[C@@H](C)CC)[C@@H](C)CC)NC(=O)[C@H](C)NC(=O)[C@H](C)NC(=O)[C@H](CCCCN)NC2=O)NC(=O)[C@@H](Cc2ccccc2)NC1=O [Example 24] ({Malonyl(2,2-Me2,histaminyl)}-[Ala(1H-tetrazol-5-yl)][dA]SFSKE[Nle][dF]D[αMeL]LDEKAAKDFINWLIQEKITK-NH2; lactam 6-10, 14-18, 27-31 (inferred); C-terminus assumed)
103 | 0.0251 | 97.6 | 0.0316 | CCCC[C@@H]1NC(=O)[C@H](CCC(=O)O)NC(=O)[C@@H](NC(=O)[C@H](CO)NC(=O)[C@](C)(Cc2ccccc2F)NC(=O)[C@H](CO)NC(=O)[C@@H](C)NC(=O)[C@H](CC(=O)O)NC(=O)C(C)(C)C(=O)NCCc2c[nH]cn2)CCCCNC(=O)C[C@@H](C(=O)N[C@@](C)(CC(C)C)C(=O)N[C@@H](CC(C)C)C(=O)N[C@@H](CC(=O)O)C(=O)N[C@H]2CCC(=O)NCCCC[C@@H](C(=O)N[C@@H](CC(=O)O)C(=O)N[C@@H](Cc3ccccc3)C(=O)N[C@H](C(=O)N[C@@H](CC(N)=O)C(=O)N[C@@H](Cc3c[nH]c4ccccc34)C(=O)N[C@@H](CC(C)C)C(=O)N[C@H](C(=O)N[C@@H](CCC(N)=O)C(=O)N[C@H]3CCC(=O)NCCCC[C@@H](C(N)=O)NC(=O)[C@H]([C@@H](C)O)NC(=O)[C@H]([C@@H](C)CC)NC(=O)[C@H](CCCCN)NC3=O)[C@@H](C)CC)[C@@H](C)CC)NC(=O)[C@H](C)NC(=O)[C@H](C)NC(=O)[C@H](CCCCN)NC2=O)NC(=O)[C@@H](Cc2ccccc2)NC1=O [Example 25] ({Malonyl(2,2-Me2,histaminyl)}-D[dA]S[αMePhe(2-F)]SKE[Nle][dF]D[αMeL]LDEKAAKDFINWLIQEKITK-NH2; lactam 6-10, 14-18, 27-31 (inferred); C-terminus assumed)
99.6 | 0.316 | 96 | 0.0794 | CCCC[C@H](NC(=O)[C@H](CCC(=O)O)NC(=O)[C@@H]1CC(=O)NCCCC[C@H](NC(=O)[C@H](CCC(=O)O)NC(=O)C(C)(C)NC(=O)[C@@H](N)Cc2c[nH]cn2)C(=O)N[C@@H](CO)C(=O)N[C@@H](Cc2ccccc2)C(=O)N[C@@H](CO)C(=O)N1)C(=O)N[C@H](Cc1ccccc1)C(=O)N[C@H](C(=O)N[C@@](C)(CC(C)C)C(=O)N[C@@H](CC(C)C)C(=O)N[C@@H](CC(=O)O)C(=O)N[C@H]1CCC(=O)NCCCC[C@@H](C(=O)N[C@@H](CC(=O)O)C(=O)N[C@@H](Cc2ccccc2)C(=O)N[C@H](C(=O)N[C@H]2CCC(=O)NCCCC[C@@H](C(=O)N[C@H](C(=O)N[C@@H](CCCCN)C(N)=O)[C@@H](C)O)NC(=O)[C@H]([C@@H](C)CC)NC(=O)[C@H](CC(C)C)NC(=O)[C@H](Cc3c[nH]c4ccccc34)NC2=O)[C@@H](C)CC)NC(=O)[C@H](C)NC(=O)[C@H](C)NC(=O)[C@H](CCCCN)NC1=O)[C@@H](C)O [Example 28] (H-H[Aib]EKSFSDE[Nle][dF]T[αMeL]LDEKAAKDFIEWLIKTK-NH2; lactam 4-8, 16-20, 24-28 (inferred); C-terminus assumed)
91.3 | 0.794 | 97.8 | 0.0251 | CCCC[C@H](NC(=O)[C@H](CCC(=O)O)NC(=O)[C@@H]1CC(=O)NCCCC[C@H](NC(=O)[C@H](CCC(=O)O)NC(=O)C(C)(C)NC(=O)[C@@H](N)Cc2c[nH]cn2)C(=O)N[C@@H](CO)C(=O)N[C@@](C)(Cc2ccccc2F)C(=O)N[C@@H](CO)C(=O)N1)C(=O)N[C@H](Cc1ccccc1)C(=O)N[C@H](C(=O)N[C@@](C)(CC(C)C)C(=O)N[C@@H](CC(C)C)C(=O)N[C@@H](CC(=O)O)C(=O)N[C@H]1CCC(=O)NCCCC[C@@H](C(=O)N[C@@H](CC(=O)O)C(=O)N[C@@H](Cc2ccccc2)C(=O)N[C@H](C(=O)N[C@H]2CCC(=O)NCCCC[C@@H](C(=O)N[C@H](C(=O)N[C@@H](CCCCN)C(N)=O)[C@@H](C)O)NC(=O)[C@H]([C@@H](C)CC)NC(=O)[C@H](CC(C)C)NC(=O)[C@H](Cc3c[nH]c4ccccc34)NC2=O)[C@@H](C)CC)NC(=O)[C@H](C)NC(=O)[C@H](C)NC(=O)[C@H](CCCCN)NC1=O)[C@@H](C)O [Example 32] (H-H[Aib]EKS[αMePhe(2-F)]SDE[Nle][dF]T[αMeL]LDEKAAKDFIEWLIKTK-NH2; lactam 4-8, 16-20, 24-28 (inferred); C-terminus assumed)
102 | 0.0316 | 98.1 | 0.0251 | CCCC[C@H](NC(=O)[C@H](CCC(=O)O)NC(=O)[C@@H]1CC(=O)NCCCC[C@H](NC(=O)[C@H](CC(=O)O)NC(=O)C(C)(C)C(=O)NCCc2c[nH]cn2)C(=O)N[C@@H](CO)C(=O)N[C@@](C)(Cc2ccccc2F)C(=O)N[C@@H](CO)C(=O)N1)C(=O)N[C@H](Cc1ccccc1)C(=O)N[C@H](C(=O)N[C@@](C)(CC(C)C)C(=O)N[C@@H](CC(C)C)C(=O)N[C@@H](CC(=O)O)C(=O)N[C@H]1CCC(=O)NCCCC[C@@H](C(=O)N[C@@H](CC(=O)O)C(=O)N[C@@H](Cc2ccccc2)C(=O)N[C@H](C(=O)N[C@H]2CCC(=O)NCCCC[C@@H](C(=O)N[C@H](C(=O)N[C@@H](CCCCN)C(N)=O)[C@@H](C)O)NC(=O)[C@H]([C@@H](C)CC)NC(=O)[C@H](CC(C)C)NC(=O)[C@H](Cc3c[nH]c4ccccc34)NC2=O)[C@@H](C)CC)NC(=O)[C@H](C)NC(=O)[C@H](C)NC(=O)[C@H](CCCCN)NC1=O)[C@@H](C)O [Example 33] ({Malonyl(2,2-Me2,histaminyl)}-DKS[αMePhe(2-F)]SDE[Nle][dF]T[αMeL]LDEKAAKDFIEWLIKTK-NH2; lactam 2-6, 14-18, 22-26; C-terminus assumed)
